The text below walks through data of patent US20250163074A1, “CDK Inhibitors And Their Use As Pharmaceuticals” (Prelude Therapeutics Incorporated, priority 2020, published 2025).

Where two headings read alike, the source gives them in different places.

The subject of test [1] is MCF7 adenocarcinoma cell line. Description: Cell proliferation studies in MCF7 cells (ATP-Lite). The class given is cell-based. To be noted: 10 days incubation, cell viability by ATP-Lite luminescence, read-out: PROLIFERATION_CTG_MCF7 IC50. The procedure:
Cell Proliferation Studies in MCF7 Cells
Cell proliferation studies were conducted in MCF7 adenocarcinoma cell line. Cells were maintained in DMEM (Corning, Catalog #: 10-013-CV) supplemented with 10% v/v FBS (Gibco, Catalog #: 26140-079), 1% v/v Penicillin Streptomycin (Gibco, Catalog #15140-122) Cells were seeded in 384-well plates at a density of 100 or 200 cells/well. Compounds dissolved in DMSO were plated in quadruplicate using a digital dispenser (D300E, Tecan) and tested on a 9-point 3-fold serial dilution. Cells were incubated for 10 days in a 37° C. active humidified incubator at 5% CO2. A media exchange and second compound addition were performed on day 5. Cell viability was measured using the ATP-Lite 1-Step Luminescence reagent (Perkin Elmer, Catalog #: 6016731) as per manufacturer's instructions. Luminescence signal was measured with a multimode plate reader (Envision 2105, Perkin Elmer). Raw data files were imported to Dotmatics Screening Ultra for IC50 analysis. Luminescence values were normalized to both background and DMSO controls to obtain a percentage of viable cells relative to DMSO vehicle control.

A further test concerns the target CDK4/Cyclin D1 (Homo sapiens (Human), UniProt P11802). Nature of the test: CDK4/CyclinD1 enzymatic activity assay (TR-FRET). The class given is biochemical. The conditions noted are these: CDK4/CyclinD1 1 nM, ATP 2 mM, read-out: CDK4_D1 IC50. The procedure:
CDK4/CyclinD1 Enzymatic Activity Assay
(§1) The inhibitory activity of compounds was evaluated in vitro using TR-FRET assay with white 384-well low volume microplate (Greiner Bio-One). CDK4/Cyclin D1 catalyzed phosphorylation of peptide in the presence and absence of compounds was measured. IC50 determination. Recombinant protein complex CDK4/Cyclin D1, expressed from insect cell, was purchased from ProQinase. Testing compounds were dissolved in DMSO at 0.1 mM and tested in 9-dose IC50 mode. The reaction mixture was prepared by mixing CDK4/CyclinD1 (1 nM final), ULight-4E-BP1 (100 nM final, Perkinelmer, TRF0128-D), and ATP (2 mM final) in assay buffer (20 mM of HEPES pH 7.4, 1 mM of EGTA, 0.05% BSA, 0.005% Tween 20, and 1 mM TCEP). The compound of interest in DMSO was added to each well in 3-fold serial dilution by dispenser (TECAN D300E). After 20 minutes preincubation at room temperature, MgCl2 (10 mM final) was added to initiate the reaction. Following a 60 minutes incubation at 37° C., the reaction was stopped by addition of 2 μL of quenching buffer consisting of Lance detection buffer (Perkinelmer CR97-100C), 2 nM LANCE Ultra Europium-anti-P-4E-BP1 (Perkinelmer, TRF0216-D), 10 mM EDTA, and incubate at room temperature for additional 60 minutes in dark. The reaction signal was measured by Envision multimode plate reader (PerkinElmer, 2102-0010). IC50 values were determined by fitting the data to the standard 4 parameters with Hill Slope using GraphPad Prism software.

The next test deals with CDK6/Cyclin D1 (Homo sapiens (Human), UniProt Q00534). Nature of the test: CDK6/CyclinD1 enzymatic activity assay (TR-FRET). Format: biochemical. To be noted: CDK6/Cyclin D1 1 nM, ATP 250 μM, read-out: CDK6_D1 IC50. The procedure:
CDK6/CyclinD1 Enzymatic Activity Assay
as §1, with “CDK6/Cyclin” for “CDK4/Cyclin”, “measured and used in” for “measured.”, “CDK6/Cyclin D1” for “CDK4/CyclinD1”, “(250 μM” for “(2 mM”, “temperature, 0.1 μL” for “temperature,”

Chain of CDK6/Cyclin D1 (Q00534 whole entry): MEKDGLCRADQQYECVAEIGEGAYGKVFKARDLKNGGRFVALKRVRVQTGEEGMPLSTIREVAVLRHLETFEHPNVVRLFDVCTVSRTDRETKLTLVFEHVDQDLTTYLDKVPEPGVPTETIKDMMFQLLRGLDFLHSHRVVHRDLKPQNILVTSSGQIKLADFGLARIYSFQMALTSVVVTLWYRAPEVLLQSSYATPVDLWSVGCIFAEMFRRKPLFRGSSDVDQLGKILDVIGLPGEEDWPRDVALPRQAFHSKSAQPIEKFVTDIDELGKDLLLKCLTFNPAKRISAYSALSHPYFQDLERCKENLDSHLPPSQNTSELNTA
Chain of CDK6/Cyclin D1 (P24385 whole entry partner): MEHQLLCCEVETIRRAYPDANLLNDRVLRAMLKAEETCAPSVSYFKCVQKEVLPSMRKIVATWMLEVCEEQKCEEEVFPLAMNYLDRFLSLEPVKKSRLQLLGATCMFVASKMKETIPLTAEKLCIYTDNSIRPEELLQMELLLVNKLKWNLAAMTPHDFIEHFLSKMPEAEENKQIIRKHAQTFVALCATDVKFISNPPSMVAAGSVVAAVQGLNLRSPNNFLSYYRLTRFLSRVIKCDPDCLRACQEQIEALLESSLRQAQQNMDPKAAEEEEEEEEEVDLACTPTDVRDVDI
Chain of CDK4/Cyclin D1 (P11802 whole entry): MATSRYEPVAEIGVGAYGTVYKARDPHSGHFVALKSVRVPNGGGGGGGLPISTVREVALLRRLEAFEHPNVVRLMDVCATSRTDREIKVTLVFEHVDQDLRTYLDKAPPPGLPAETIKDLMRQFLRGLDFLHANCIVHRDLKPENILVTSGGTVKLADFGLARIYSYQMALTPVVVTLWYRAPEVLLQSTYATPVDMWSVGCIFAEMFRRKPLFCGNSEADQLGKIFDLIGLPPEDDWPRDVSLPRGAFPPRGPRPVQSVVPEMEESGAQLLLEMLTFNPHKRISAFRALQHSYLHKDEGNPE
Chain of CDK4/Cyclin D1 (P24385 whole entry partner): as the sequence (P24385 whole entry partner) above

For `Cc1c(-c2nc(Nc3ccc(N4CC5(C4)CN(C(C)C)C5)cn3)ncc2F)sc2c1C(=O)N(C)CC21CC1` [Example 34, 2′-(5-Fluoro-2-((5-(6-isopropyl-2,6-diazaspiro[3.3]heptan-2-yl)pyridin-2-yl)amino)pyrimidin-4-yl)-3′,5′-dimethyl-5′,6′-dihydro-4′H-spiro[cyclopropane-1,7′-thieno[3,2-c]pyridin]-4′-one], the IC50 in test [1] (Homo sapiens, 240 h) is at most 20 nM; at CDK4/Cyclin D1, at most 20 nM; on CDK6/Cyclin D1, at most 20 nM.

Consider `Cc1c(-c2nc(Nc3ccc(N4CCC5(CC4)CN(C)C5)cn3)ncc2F)sc2c1C(=O)N(C)CC21CC1` [Example 36, 2′-(5-Fluoro-2-((5-(2-methyl-2,7-diazaspiro[3.5]nonan-7-yl)pyridin-2-yl)amino)pyrimidin-4-yl)-3′,5′-dimethyl-5′,6′-dihydro-4′H-spiro[cyclopropane-1,7′-thieno[3,2-c]pyridin]-4′-one], for which the IC50 is 20 to 200 nM in test [1] (Homo sapiens, 240 h); at most 20 nM on CDK4/Cyclin D1; at most 20 nM on CDK6/Cyclin D1.

`Cc1c(-c2nc(Nc3ccc(N4CCC5(CCN(C)C5)C4)cn3)ncc2F)sc2c1C(=O)N(C)CC21CC1` (stereo not drawn) [Example 37, 2′-(5-Fluoro-2-((5-(7-methyl-2,7-diazaspiro[4.4]nonan-2-yl)pyridin-2-yl)amino)pyrimidin-4-yl)-3′,5′-dimethyl-5′,6′-dihydro-4′H-spiro[cyclopropane-1,7′-thieno[3,2-c]pyridin]-4′-one]: the IC50 in test [1] (Homo sapiens, 240 h) is 20 to 200 nM; on CDK4/Cyclin D1 it was at most 20 nM; on CDK6/Cyclin D1 it was at most 20 nM.

As for `CN1CCC(c2ccc(Nc3nc(-c4cc5c(s4)C4(CC4)CN(C)C5=O)ncc3C(F)(F)F)nc2)CC1` [Example 40, 5-Methyl-2-[4-[[5-(1-methylpiperidin-4-yl)pyridin-2-yl]amino]-5-(trifluoromethyl)pyrimidin-2-yl]spiro[6H-thieno[3,2-c]pyridine-7,1′-cyclopropane]-4-one], the IC50 is at most 20 nM in test [1] (Homo sapiens, 240 h); at most 20 nM at CDK4/Cyclin D1; at most 20 nM at CDK6/Cyclin D1.

Regarding `Cc1cnc(Nc2ccc(N3CCC4(CC3)CN(C)C4)cn2)nc1-c1cc2c(s1)C1(CC1)CN(C)C2=O` [Example 43, 5-methyl-2-[5-Methyl-2-[[5-(2-methyl-2,7-diazaspiro[3.5]nonan-7-yl)pyridin-2-yl]amino]pyrimidin-4-yl]spiro[6H-thieno[3,2-c]pyridine-7,1′-cyclopropane]-4-one], the IC50 in test [1] (Homo sapiens, 240 h) is 20 to 200 nM; at CDK4/Cyclin D1 it was at most 20 nM; at CDK6/Cyclin D1, at most 20 nM.

For `CCN1CC2(C1)CN(c1ccc(Nc3ncc(Cl)c(-c4cc5c(s4)C4(CC4)CN(C)C5=O)n3)nc1)C2` [Example 45, 2-[5-Chloro-2-[[5-(6-ethyl-2,6-diazaspiro[3.3]heptan-2-yl)pyridin-2-yl]amino]pyrimidin-4-yl]-5-methylspiro[6H-thieno[3,2-c]pyridine-7,1′-cyclopropane]-4-one], the IC50 in test [1] (Homo sapiens, 240 h) is at most 20 nM; on CDK4/Cyclin D1, at most 20 nM; on CDK6/Cyclin D1, at most 20 nM.

On to `CN1CC2(CCC2)c2sc(-c3nc(Nc4ccc(N5CC6CC(C5)N6C)cn4)ncc3F)cc2C1=O` [Example 46, 2′-(5-Fluoro-2-((5-(6-methyl-3,6-diazabicyclo[3.1.1]heptan-3-yl)pyridin-2-yl)amino)pyrimidin-4-yl)-5′-methyl-5′,6′-dihydro-4′H-spiro[cyclobutane-1,7′-thieno[3,2-c]pyridin]-4′-one], for which the IC50 was 20 to 200 nM in test [1] (Homo sapiens, 240 h); at most 20 nM at CDK4/Cyclin D1; 20 to 200 nM at CDK6/Cyclin D1.

Consider `CCN1CC2(C1)CN(c1ccc(Nc3ncc(F)c(-c4sc5c(c4C)C(=O)N(C)CC54CCC4)n3)nc1)C2` [Example 52, 2′-(2-((5-(6-Ethyl-2,6-diazaspiro[3.3]heptan-2-yl)pyridin-2-yl)amino)-5-fluoropyrimidin-4-yl)-3′,5′-dimethyl-5′,6′-dihydro-4′H-spiro[cyclobutane-1,7′-thieno[3,2-c]pyridin]-4′-one], for which the IC50 was 20 to 200 nM in test [1] (Homo sapiens, 240 h); at most 20 nM on CDK4/Cyclin D1; at most 20 nM on CDK6/Cyclin D1.

Regarding `CN1CC2(CCC2)c2sc(-c3nc(Nc4ccc(N5CCN6CCC5CC6)cn4)ncc3F)cc2C1=O` [Example 53, 2′-(2-((5-(1,4-Diazabicyclo[3.2.2]nonan-4-yl)pyridin-2-yl)amino)-5-fluoropyrimidin-4-yl)-5′-methyl-5′,6′-dihydro-4′H-spiro[cyclobutane-1,7′-thieno[3,2-c]pyridin]-4′-one], the IC50 was 20 to 200 nM in test [1] (Homo sapiens, 240 h); at most 20 nM at CDK4/Cyclin D1; 20 to 200 nM on CDK6/Cyclin D1.

For the compound `Cc1c(-c2nc(Nc3ccc(N4CC5(CCN(C)C5)C4)cn3)ncc2F)sc2c1C(=O)N(C)CC21CCC1` [Example 54, 2′-(5-Fluoro-2-((5-(6-methyl-2,6-diazaspiro[3.4]octan-2-yl)pyridin-2-yl)amino)pyrimidin-4-yl)-3′,5′-dimethyl-5′,6′-dihydro-4′H-spiro[cyclobutane-1,7′-thieno[3,2-c]pyridin]-4′-one], the IC50 in test [1] (Homo sapiens, 240 h) is 20 to 200 nM; at CDK4/Cyclin D1 it was at most 20 nM; on CDK6/Cyclin D1, at most 20 nM.

For the compound `Cc1c(-c2nc(Nc3ccc(N4C[C@H]5CN(C)C[C@H]5C4)cn3)ncc2F)sc2c1C(=O)N(C)CC21CCC1` [Example 57, 2′-(5-Fluoro-2-((5-((3aR,6aS)-5-methylhexahydropyrrolo[3,4-c]pyrrol-2(1H)-yl)pyridin-2-yl)amino)pyrimidin-4-yl)-3′,5′-dimethyl-5′6′-dihydro-4′H-spiro[cyclobutane-1,7′-thieno[3,2-c]pyridin]-4′-one], the IC50 was 20 to 200 nM in test [1], at most 20 nM at CDK4/Cyclin D1 and at most 20 nM on CDK6/Cyclin D1.

Turning to `CN1CCC(c2ccc(Nc3nc(-c4cc5c(s4)C4(CCC4)CN(C)C5=O)ncc3C(F)(F)F)nc2)CC1` [Example 58], the IC50 (in test [1]; at CDK4/Cyclin D1; at CDK6/Cyclin D1) was at most 20 nM each time.

Regarding `Cc1c(-c2nc(Nc3ccc(C4CCN(C)CC4)cn3)ncc2Cl)sc2c1C(=O)N(C)CC21CCC1` [Example 60, 2-[5-Chloro-2-[[5-(1-methyl-piperidin-4-yl)pyridin-2-yl]amino]pyrimidin-4-yl]-3,5-dimethylspiro[6H-thieno[3,2-c]pyridine-7,1′-cyclobutane]-4-one], the IC50 in test [1] (Homo sapiens, 240 h) was 20 to 200 nM; on CDK4/Cyclin D1, at most 20 nM; on CDK6/Cyclin D1, at most 20 nM.

With `CN1CC2(C1)CN(c1ccc(Nc3ncc(F)c(-c4cc5c(s4)C4(CCCC4)CN(C)C5=O)n3)nc1)C2` [Example 61, 2′-(5-Fluoro-2-((5-(6-(methyl-d3)-2,6-diazaspiro[3.3]heptan-2-yl)pyridin-2-yl)amino)pyrimidin-4-yl)-5,-(methyl-d3)-5′,6′-dihydro-4′H-spiro[cyclopentane-1,7′-thieno[3,2-c]pyridin]-4′-one], the IC50 (in test [1]; at CDK4/Cyclin D1; at CDK6/Cyclin D1) was at most 20 nM each time.
